# Reference: publication PMC5487684, “Safety, Pharmacokinetics, and Antiviral Activity of a Novel HIV Antiviral, ABX464, in Treatment-Naive HIV-Infected Subjects in a Phase 2 Randomized, Controlled Study” (Antimicrobial Agents and Chemotherapy, 2017)
# System: HIV-infected subjects
# Assay: Safety and tolerability (TEAEs, ECG, laboratory) after repeated oral administration, phase 2a study
# Assay type: in vivo, human
# Conditions: for Subjects experiencing at least one TEAE: Flank pain / Subjects experiencing at least one TEAE: Headache / Subjects experiencing at least one TEAE: Injury, poisoning, and procedural complications / Subjects experiencing at least one TEAE: Musculoskeletal and connective tissue disorders / Subjects experiencing at least one TEAE: Nausea / Subjects experiencing at least one TEAE: Neck pain / Subjects experiencing at least one TEAE: Nervous system disorders / Subjects experiencing at least one TEAE: Pain in extremity / Subjects experiencing at least one TEAE: Sciatica, back pain / Subjects experiencing at least one TEAE: Skin abrasion / Subjects experiencing at least one TEAE: Total / Subjects experiencing at least one TEAE: Upper abdominal pain / Subjects experiencing at least one TEAE: Vomiting / Subjects experiencing at least one TEAE: Abdominal pain / Subjects experiencing at least one TEAE: Arthralgia / Subjects experiencing at least one TEAE: Back pain / Subjects experiencing at least one TEAE: Diarrhea / Subjects experiencing at least one TEAE: Gastrointestinal disorders: fed
# Description: Participants were assigned to one of eight groups; each group (with one exception) included eight subjects receiving either ABX464 (n = 6) or the corresponding placebo (n = 2) according to a randomization code. […] In the present study with HIV-infected subjects, the first dose administered was 25 mg, given once or 3 times a day over a 2- to 3-week period. This initial dose was therefore considered safe for assessment of the safety and tolerability of ABX464 after repeated oral administrations in subjects infected by HIV and determination of the potential effect on the HIV viral load.
# The final dosing protocol for each of the eight groups was as follows: group 1, 25 mg every 3 days for 2 to 3 weeks under fasted conditions; group 2, 25 mg once a day (q.d.) for 2 to 3 weeks under fasted conditions; group 3, 50 mg once a day for 2 to 3 weeks under fasted conditions; group 4, 50 mg 3 times a day (t.i.d.) for 4 weeks under fed conditions; group 5, 75 mg once a day for 2 weeks under fed conditions; group 6, 100 mg once a day for 2 to 3 weeks under fasted conditions; group 7, 150 mg every 3 days for 2 to 3 weeks under fed conditions; and group 8, 150 mg once a day for 2 weeks under fed conditions. Per the study protocol, the treatment period was defined as 2 weeks. […] The decision to proceed to the next highest dose was determined by the data and safety monitoring board after review of the laboratory safety data, vital signs, ECGs, and adverse event reports from the group receiving the current dose after 2 weeks of treatment.
# Subjects were hospitalized from the day prior to the first dose to at least the morning of day 2. They were orally dosed with 25-mg capsules of ABX464 with 240 ml water under fed or fasted conditions. According to the group, subjects were dosed with 1, 2, 3, 4, or 6 capsules to deliver 25 mg, 50 mg, 75 mg, 100 mg, or 150 mg product, respectively, or the same number of placebo capsules.
# Safety assessments and laboratory tests were carried out according to the schedules described in Table S4 for groups dosed every day, every 3 days, and 3 times a day. Follow-up visits were scheduled for 7 days after the last dose and subsequently once every week in order to assess the elimination of the main ABX464 metabolite and to assess the viral load. Follow-up visits were terminated when the virus load was within 0.5 log of the baseline value or after 3 follow-up visits, whichever came first. Prior to the statistical analyses, AEs were coded using the Medical Dictionary for Regulatory Activities (MedDRA dictionary; last available version) in order to be tabulated by system organ class (SOC) and preferred term (PT). The AEs were analyzed according to the treatment emergence phase from the first study drug administration on day 1 up to 48 h after the last study drug administration. The number and percentage of subjects with at least one TEAE were tabulated by SOC and PT for each group and dose. The number of occurrences of TEAEs was also analyzed in the same way by SOC and PT for each group and dose, by grade of severity for each group and dose, and by level of causality to the study drug for each group and dose.
# [1] = Group 7 (n = 6), 150 mg every 3 days, Mild
# [2] = Group 7 (n = 6), 150 mg every 3 days, Moderate
# [3] = Group 8 (n = 6), 150 mg q.d., Mild
# [4] = Group 8 (n = 6), 150 mg q.d., Moderate
structure (smiles),measurement,setting,value
FC(F)(F)Oc1ccc(Nc2ccc3cccc(Cl)c3n2)cc1 [ABX464],Subjects experiencing at least one TEAE: Flank pain,[1],0 (0.0) No. (%)
same,Subjects experiencing at least one TEAE: Headache,[1],4 (66.7) No. (%)
same,"Subjects experiencing at least one TEAE: Injury, poisoning, and procedural complications",[1],0 (0.0) No. (%)
same,Subjects experiencing at least one TEAE: Musculoskeletal and connective tissue disorders,[1],1 (16.7) No. (%)
same,Subjects experiencing at least one TEAE: Nausea,[1],4 (66.7) No. (%)
same,Subjects experiencing at least one TEAE: Neck pain,[1],0 (0.0) No. (%)
same,Subjects experiencing at least one TEAE: Nervous system disorders,[1],4 (66.7) No. (%)
same,Subjects experiencing at least one TEAE: Pain in extremity,[1],0 (0.0) No. (%)
same,"Subjects experiencing at least one TEAE: Sciatica, back pain",[1],0 (0.0) No. (%)
same,Subjects experiencing at least one TEAE: Skin abrasion,[1],0 (0.0) No. (%)
same,Subjects experiencing at least one TEAE: Total,[1],5 (83.3) No. (%)
same,Subjects experiencing at least one TEAE: Upper abdominal pain,[1],0 (0.0) No. (%)
same,Subjects experiencing at least one TEAE: Vomiting,[1],1 (16.7) No. (%)
same,Subjects experiencing at least one TEAE: Abdominal pain,[2],0 (0.0) No. (%)
same,Subjects experiencing at least one TEAE: Arthralgia,[2],0 (0.0) No. (%)
same,Subjects experiencing at least one TEAE: Back pain,[2],0 (0.0) No. (%)
same,Subjects experiencing at least one TEAE: Diarrhea,[2],0 (0.0) No. (%)
same,Subjects experiencing at least one TEAE: Flank pain,[2],0 (0.0) No. (%)
same,Subjects experiencing at least one TEAE: Gastrointestinal disorders,[2],3 (50.0) No. (%)
same,Subjects experiencing at least one TEAE: Headache,[2],3 (50.0) No. (%)
same,"Subjects experiencing at least one TEAE: Injury, poisoning, and procedural complications",[2],0 (0.0) No. (%)
same,Subjects experiencing at least one TEAE: Musculoskeletal and connective tissue disorders,[2],0 (0.0) No. (%)
same,Subjects experiencing at least one TEAE: Nausea,[2],3 (50.0) No. (%)
same,Subjects experiencing at least one TEAE: Neck pain,[2],0 (0.0) No. (%)
same,Subjects experiencing at least one TEAE: Nervous system disorders,[2],4 (66.7) No. (%)
same,Subjects experiencing at least one TEAE: Pain in extremity,[2],0 (0.0) No. (%)
same,"Subjects experiencing at least one TEAE: Sciatica, back pain",[2],0 (0.0) No. (%)
same,Subjects experiencing at least one TEAE: Skin abrasion,[2],0 (0.0) No. (%)
same,Subjects experiencing at least one TEAE: Total,[2],4 (66.7) No. (%)
same,Subjects experiencing at least one TEAE: Upper abdominal pain,[2],0 (0.0) No. (%)
same,Subjects experiencing at least one TEAE: Vomiting,[2],3 (50.0) No. (%)
same,Subjects experiencing at least one TEAE: Abdominal pain,[3],1 (16.7) No. (%)
same,Subjects experiencing at least one TEAE: Arthralgia,[3],0 (0.0) No. (%)
same,Subjects experiencing at least one TEAE: Back pain,[3],0 (0.0) No. (%)
same,Subjects experiencing at least one TEAE: Diarrhea,[3],0 (0.0) No. (%)
same,Subjects experiencing at least one TEAE: Flank pain,[3],0 (0.0) No. (%)
same,Subjects experiencing at least one TEAE: Gastrointestinal disorders,[3],6 (100.0) No. (%)
same,Subjects experiencing at least one TEAE: Headache,[3],6 (100.0) No. (%)
same,"Subjects experiencing at least one TEAE: Injury, poisoning, and procedural complications",[3],0 (0.0) No. (%)
same,Subjects experiencing at least one TEAE: Musculoskeletal and connective tissue disorders,[3],1 (16.7) No. (%)
same,Subjects experiencing at least one TEAE: Nausea,[3],6 (100.0) No. (%)
same,Subjects experiencing at least one TEAE: Neck pain,[3],0 (0.0) No. (%)
same,Subjects experiencing at least one TEAE: Nervous system disorders,[3],6 (100.0) No. (%)
same,Subjects experiencing at least one TEAE: Pain in extremity,[3],1 (16.7) No. (%)
same,"Subjects experiencing at least one TEAE: Sciatica, back pain",[3],0 (0.0) No. (%)
same,Subjects experiencing at least one TEAE: Skin abrasion,[3],0 (0.0) No. (%)
same,Subjects experiencing at least one TEAE: Total,[3],6 (100.0) No. (%)
same,Subjects experiencing at least one TEAE: Upper abdominal pain,[3],0 (0.0) No. (%)
same,Subjects experiencing at least one TEAE: Vomiting,[3],4 (66.7) No. (%)
same,Subjects experiencing at least one TEAE: Abdominal pain,[4],0 (0.0) No. (%)
same,Subjects experiencing at least one TEAE: Arthralgia,[4],0 (0.0) No. (%)
same,Subjects experiencing at least one TEAE: Back pain,[4],0 (0.0) No. (%)
same,Subjects experiencing at least one TEAE: Diarrhea,[4],0 (0.0) No. (%)
same,Subjects experiencing at least one TEAE: Flank pain,[4],0 (0.0) No. (%)
same,Subjects experiencing at least one TEAE: Headache,[4],0 (0.0) No. (%)
same,"Subjects experiencing at least one TEAE: Injury, poisoning, and procedural complications",[4],1 (16.7) No. (%)
same,Subjects experiencing at least one TEAE: Musculoskeletal and connective tissue disorders,[4],0 (0.0) No. (%)
same,Subjects experiencing at least one TEAE: Nausea,[4],0 (0.0) No. (%)
same,Subjects experiencing at least one TEAE: Neck pain,[4],0 (0.0) No. (%)
same,Subjects experiencing at least one TEAE: Nervous system disorders,[4],0 (0.0) No. (%)
same,Subjects experiencing at least one TEAE: Pain in extremity,[4],0 (0.0) No. (%)
same,"Subjects experiencing at least one TEAE: Sciatica, back pain",[4],0 (0.0) No. (%)
same,Subjects experiencing at least one TEAE: Skin abrasion,[4],1 (16.7) No. (%)
same,Subjects experiencing at least one TEAE: Total,[4],1 (16.7) No. (%)
same,Subjects experiencing at least one TEAE: Upper abdominal pain,[4],0 (0.0) No. (%)
same,Subjects experiencing at least one TEAE: Vomiting,[4],0 (0.0) No. (%)
same,Frequency of subjects receiving ABX464 who reported TEAEs,all other groups (4 to 8),100%
same,Subjects with vomiting episodes,group receiving 150 mg ABX464,66.7%
same,Changes in laboratory parameters between baseline and posttreatment,in vivo,none of the changes in any laboratory parameter observed between baseline and posttreatment measurements suggested an impact
same,Electrocardiogram (ECG) parameters,in vivo,no clinically significant abnormalities
same,Product-related SAEs,in vivo,no product-related SAEs occurred
same,Subjects reporting upper abdominal pain,overall,6%
same,Number of AEs reported,"subjects who received the study drug, regardless of the dose or the drug regimen",158 AEs
same,Subjects reporting upper abdominal pain,"twenty cases, none in placebo",4 subjects
same,Overall safety and tolerability,"up to 150 mg once a day, HIV-infected subjects",safe and well tolerated
